These results are taken from ChEMBL document CHEMBL1144426, “Adenosine kinase inhibitors. 4. 6,8-Disubstituted purine nucleoside derivatives. Synthesis, conformation, and enzyme inhibition” (J Med Chem, 2005).

Each structure is given as a SMILES string.

The target of this experiment is Adenosine kinase (Homo sapiens, UniProt P55263). Kind of experiment: Inhibitory activity against Human Recombinant Adenosine Kinase.
Sequence of Adenosine kinase (P55263 whole entry): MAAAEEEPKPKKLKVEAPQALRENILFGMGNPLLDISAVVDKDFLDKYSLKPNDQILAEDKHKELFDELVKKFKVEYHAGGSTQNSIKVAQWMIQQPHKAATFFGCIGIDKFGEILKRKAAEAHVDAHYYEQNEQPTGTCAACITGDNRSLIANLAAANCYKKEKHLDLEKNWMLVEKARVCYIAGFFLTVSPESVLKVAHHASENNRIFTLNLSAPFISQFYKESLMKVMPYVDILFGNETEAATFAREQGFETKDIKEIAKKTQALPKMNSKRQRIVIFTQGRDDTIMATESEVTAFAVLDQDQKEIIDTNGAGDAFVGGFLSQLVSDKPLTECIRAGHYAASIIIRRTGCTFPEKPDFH
Broadly, the IC50 is the concentration needed to halve the response being measured. Regarding `C[C@H]1O[C@@H](n2cc(-c3ccccc3)c3c(N4CCc5ccccc54)ncnc32)[C@H](O)[C@@H]1O`, the IC50 came to 51 nM.

Regarding `C=Cc1nc2c(Nc3ccccc3)ncnc2n1[C@@H]1O[C@H](CO)[C@@H](O)[C@H]1O`, the IC50 is 300 nM.

Take `OC[C@H]1O[C@@H](n2c(I)nc3c(N4CCc5ccccc54)ncnc32)[C@H](O)[C@@H]1O`: the IC50 came to 1000 nM. Turning to `OC[C@H]1O[C@@H](n2cnc3c(N4CCc5ccccc54)ncnc32)[C@H](O)[C@@H]1O`, the IC50 was determined as 500 nM.

With `OC[C@H]1O[C@@H](n2c(Cl)nc3c(Nc4ccccc4)ncnc32)[C@H](O)[C@@H]1O`, the IC50 stood at 3600 nM. Regarding `OC[C@H]1O[C@@H](n2c(Nc3ccccc3)nc3c(Nc4ccccc4)ncnc32)[C@H](O)[C@@H]1O`, the half-inhibitory concentration (IC50) was 90 nM. With `CSc1nc2c(Nc3ccccc3)ncnc2n1[C@@H]1O[C@H](CO)[C@@H](O)[C@H]1O` the figure was 1000 nM. With `CSc1nc2c(N3CCc4ccccc43)ncnc2n1[C@@H]1O[C@H](CO)[C@@H](O)[C@H]1O` the figure was 150 nM; with `C[C@H]1O[C@@H](n2c(Nc3ccccc3)nc3c(N4CCc5ccccc54)ncnc32)[C@H](O)[C@@H]1O`, 200 nM; with `C#Cc1nc2c(N3CCc4ccccc43)ncnc2n1[C@@H]1O[C@H](CO)[C@@H](O)[C@H]1O`, 1000 nM.

Take `OC[C@H]1O[C@@H](n2c(N3CCc4ccccc43)nc3c(Nc4ccccc4)ncnc32)[C@H](O)[C@@H]1O`: the IC50 worked out at 7100 nM. With `OC[C@H]1O[C@@H](n2c(Cl)nc3c(N4CCc5ccccc54)ncnc32)[C@H](O)[C@@H]1O` the figure was 480 nM. With `C=Cc1nc2c(N3CCc4ccccc43)ncnc2n1[C@@H]1O[C@H](CO)[C@@H](O)[C@H]1O` the figure was 60 nM.

Take `OC[C@H]1O[C@@H](n2c(-c3ccco3)nc3c(Nc4ccccc4)ncnc32)[C@H](O)[C@@H]1O`: the IC50 turned out to be 6900 nM. `OC[C@H]1O[C@@H](n2c(-c3ccco3)nc3c(N4CCc5ccccc54)ncnc32)[C@H](O)[C@@H]1O`: the IC50 was determined as 2900 nM. With `OC[C@H]1O[C@@H](n2c(I)nc3c(Nc4ccccc4)ncnc32)[C@H](O)[C@@H]1O` the figure was 4500 nM. With `OC[C@H]1O[C@@H](n2c(Nc3ccccc3)nc3c(N4CCc5ccccc54)ncnc32)[C@H](O)[C@@H]1O` the figure was 19 nM. Regarding `CCc1nc2c(N3CCc4ccccc43)ncnc2n1[C@@H]1O[C@H](CO)[C@@H](O)[C@H]1O`, the IC50 amounted to 230 nM. With `OC[C@H]1O[C@@H](n2c(N3CCc4ccccc43)nc3c(N4CCc5ccccc54)ncnc32)[C@H](O)[C@@H]1O` the figure was 2000 nM.
